Assay results as given in patent US10494341B2, “Compound containing indoleacetic acid core structure and use thereof” (Beijing An Jian Xi Bio-Medical Technology Co., Ltd., priority 2015, dated 2019).

Legend:
[1] = Degradation of the compound in plasma (10% bovine serum medium, HPLC); assay type: in vitro ADME; conditions: 10 μM, 37° C., within 24 hours
Description: Determination of the stability of the compound: (1) degradation of the compound in plasma: Compound a (10 μM) dissolved in DMSO was cultured with 10% bovine serum medium (5 mL) at 37° C. 200 μL of medium was collected at the time points of 1, 3, 6, 12 and 24 hours, respectively, added with equal volume of acetonitrile for reaction, and subjected to high speed centrifugation (13,000 rpm) for 5 minutes. The level of degradation of the compound was determined by HPLC. (2) Degradation of the compound in cells: the compound a dissolved in DMSO was added at a final concentration of 10 μM to a 6-well culture dish containing SW480 cells and incubated in carbon dioxide incubator. The cells were collected at the time points of 1, 3, 6, 12, and 24 hours, respectively, washed fully, then extracted with 0.5 mL of acetonitrile, and centrifuged at high speed (12,000 rpm) for 5 minutes. The level of degradation of the compound in the organic phase was determined by HPLC.

[2] = test system: mouse colon cancer cells (MCA-38); test: Killing effect of cisplatin on tumor cells with compound (LDH); assay type: cell-based; conditions: MCA-38, 10, 30 and 90 μM, 24 hours
Description: (§1) The mechanism of compounds enhancing killing effect of chemotherapeutic agents on tumor cells while protecting normal cells: mouse colon cancer cells (MCA-38) and primarily-cultured normal mouse intestinal mucosa cells were cultured in a 96-well plate, respectively. 24 hours later, various concentrations (10, 30 and 90 μM) of compound b was respectively added to the cell culture medium, and incubated for 24 hours. LDH was used to detect the damage of the cells, and the cells were collected and extracted for protein. The expression levels of adenosine triphosphate-binding transporter (ABCG2) and the cell cycle-dependent protein […] (p21) were detected by immunoblotting (performed according to the instructions provided by the manufacturer). […] ABCG2 is a transporter, and can pump anticancer drugs out of the cells. […] The high expression of p21 allows the cells to be in non-dividing quiescent phase, so that cells are not sensitive to chemotherapeutic drugs or injury in other forms. The compounds of the present invention make these proteins expressed differentially in normal tissues and tumor tissues, which is one of the reasons for selectively protecting normal tissues and enhancing the sensitivity of tumors to treatment.

[3] = test system: cell cycle-dependent protein kinase (p21); test: Expression of p21 by immunoblotting; assay type: cell-based, mouse
Description: as §1

[4] = test system: normal mouse intestinal mucosa cells; test: Cisplatin damage of normal cells with compound (LDH); assay type: cell-based; conditions: all tested concentrations except the high concentration, 24 hours
Description: as §1

[5] = test system: adenosine triphosphate-binding transporter (ABCG2); test: Expression of ABCG2 by immunoblotting; assay type: cell-based, mouse
Description: as §1

[6] = normal mouse intestinal mucosa cells

In the case of `COC1=C(OC)C(=O)C(CCCCCCCCCCOC(=O)Cc2c(C)n(C(=O)c3ccc(Cl)cc3)c3cc(OC)ccc23)=C(C)C1=O` [compound a], the “compound hydrolyzed in bovine serum” value [1] is reported as 11%.
For `COc1ccc2c(CC(=O)OCCCCCCCCCCc3c(C)c(O)c(OC)c(OC)c3O)c(C)n(C(=O)c3ccc(Cl)cc3)c2c1` [compound b], the “killing effect of cisplatin on colon cancer cells” value [2] was “significantly enhances the killing effect of cisplatin”, the “expression of p21 in tumor cells” value ([3]; MCA-38 cells) was “no influence” and the “expression of p21 in normal intestinal mucosa cells” value [3, 6] was “significantly enhance the expression of p21”. For the same compound, the “cisplatin damage of normal intestinal mucosa cells” value [4] was “significantly inhibit cisplatin from damaging normal intestinal mucosa cells”, the “expression of ABCG2 in tumor cells” value ([5]; MCA-38 cells) was “significantly inhibit expression” and the “expression of ABCG2 in normal cells” value [5, 6] was “no influence”.
